Reference: patent US20250163016A1, “PYRIDINE DERIVATIVE, PREPARATION METHOD THEREFOR AND USE THEREOF” (CHENGDU EASTON BIOPHARMACEUTICALS CO., LTD., priority 2022, published 2025)

Tests used:
Kasumi-1 cells = test: Kasumi-1 cell proliferation inhibition test (Celltiter GLO); format: cell-based; settings: Homo sapiens, 168 h, Kasumi-1, 7 days culture
Description: Research had confirmed that LSD1 played a crucial role in the occurrence process of various types of cancers, including small cell lung cancer (SCLC) and acute myeloid leukemia (AML). Therefore, a human acute myeloid leukemia (Kasumi-1) cell line was used to determine the ATP content in cells at different drug concentrations using a Celltiter GLO assay kit, the cell activity was reflected by luminescence intensity, and IC50 values of different compounds on Kasumi-1 cells were calculated using inhibition rates. The inhibitory effects of the compounds in the present application on the proliferation of Kasumi-1 cells were studied to evaluate the anti-tumor efficacy of the tested compounds at the cellular level.
• Day 1 Cells were seeded into the 384-well cell culture plate and placed in a 37° C. 5% CO2 cell incubator to be cultured overnight. • Day 0 The compound to be tested was prepared into a 10 mM mother liquid using DMSO, starting from […], diluted by 3 folds, with 10 concentration points and double duplicate wells. A diluted compound was added into the 384-well cell culture plate and placed in a 37° C. 5% CO2 cell incubator to be cultured for 7 days. The concentration of the DMSO in a cell culture system was 0.1 vol %. • Day 7 Celltiter GLO was added into the 384-well cell culture plate according to a volume ratio of culture system:Celltiter GLO=1:1, light-shielded oscillation was carried out on a plate oscillator for 3 min, then the cell culture plate was placed at the room temperature for 30 min with light shielded, and the plate was read using a multifunctional microplate reader chemical light emitting module.
An inhibition rate was calculated by utilizing luminescence intensity of the above DMSO group (with DMSO added), test group (with the tested compound or a positive control solution added) and blank group (not treating cells), and a calculation formula was as follows: […]
Using a logarithm of the concentration as an X axis and the percentage inhibition rate as a Y axis, a dose-response curve was fitted using a formula log(inhibitor) vs. response-Variable slope (Four parameters) of analysis software Graphpad Prism 8 to obtain the IC50 value of each compound on Kasumi-1 proliferation inhibition activity.

[1] = test system: HL-60 cell subcutaneous heterograft tumor; test: In-vivo efficacy in HL-60 cell subcutaneous heterograft tumor model; design: species or system Balb/C nu mice; settings: HL-60 xenograft, qd, p.o., 10 mg/Kg, 10 days
Description: • DMEM culture medium containing 10% fetal bovine serum (FBS), 37° C., 5% CO2.
Balb/C nu mice, female, 6-8 weeks, weight about 18-22 grams, and each mouse was subcutaneously inoculated with 0.1 mL (1×10^7 cells+matrigel) of HL-60 cells on the right side. When an average volume of tumors reached 100-200 cubic millimeters, group administration was performed, see the table below (Table 13) for administration dosages and methods. The tumor volume was measured twice a week, the weights of the mice as well as lengths and widths of tumors were recorded in each time of measurement, and the tumor volume=length×width×width/2 mm^3. When the average tumor volume of a solvent group grew to 3000 cubic millimeters or above, administration was ended, and an average tumor volume difference between a tested compound group and the solvent group was obtained via comparison. The tumor suppression effects of the compounds were evaluated with TGI (%), which could reflect a tumor growth inhibition rate.

[2] = Pharmacokinetics of oral administration of mice under different solvent conditions; format: in vivo; settings: male, Balb/c, mouse, plasma, 5 mg/kg, p.o. 5.0 mg/kg
Description: With Balb/c mice as tested animals, blood drug concentrations of the compounds of the present application in plasma at different moments after administration of the mice under different solvent conditions were determined using an LC-MS/MS method. Pharmacokinetic parameters of the compounds of the present application in the mice under the different solvent conditions were obtained, and pharmacokinetic characteristics of the compounds were studied.
• Balb/c mice, male, weight 18-22 g, 6 mice per group. The animals were fed in an animal house after being purchased, an adaptation period was at least 3 days, and they were used for tests after passing quarantine.
According to Table 8, each group of mice was given the corresponding tested drugs or positive drugs by gavage, before administration, and 15 min, 30 min, 1 h, 2 h, 4 h, 6 h, 8 h, 10 h and 24 h after administration, a fixed volume of blood was collected through eye sockets and placed in an EDTA-K2 anticoagulant tube, centrifuging was carried out at 8000 rpm for 1 min to separate plasma into a centrifuge tube, and the plasma was frozen in a −20° C. refrigerator.
(§1) The plasma at each time point stored at −20° C. was taken out, then acetonitrile was added, after whirling at 1500 revolutions for 2 min, centrifuging was carried out for 15 min (3500 r/min), and a fixed volume of solution supernatant was taken for LC-MS/MS analysis.
(§2) Non-compartment model fitting was carried out on pharmacokinetic behaviors of the tested compounds, and DAS3.31 software was adopted to calculate main pharmacokinetic parameters (T1/2, Tmax, Cmax, AUClast, etc.).

[3] = Pharmacokinetics of oral and intravenous administration of rats; format: in vivo; settings: male, rat, plasma, SD rats; for bioavailability: oral, p.o. 5.0 mg/kg vs i.v. 5.0 mg/kg, read-out: F (bioavailability)
Description: With SD rats as tested animals, blood drug concentrations of the compounds of the present application in plasma at different moments after oral administration and intravenous administration to the rats were determined using an LC-MS/MS method, pharmacokinetic parameters and bioavailabilities of the compounds of the present application in the rats were obtained, and pharmacokinetic characteristics of the compounds were studied.
• SD rats, male, weight 180-220 g, 3 rats per group. The animals were fed in an animal house after being purchased, an adaptation period was at least 3 days, and they were used for tests after passing quarantine.
3.2. Solvent: p.o.: 0.5% Sodium Methylcellulose Aqueous Solution
• i.v.: 5% DMSO+10% Solutol+85% Saline
According to Table 6, each group of rats was given the corresponding tested drugs or positive drugs by gavage, before administration, and 5 min, 15 min, 30 min, 1 h, 2 h, 4 h, 6 h, 8 h, 10 h and 24 h after administration, a fixed volume of blood was collected through eye sockets and placed in an EDTA-K2 anticoagulant tube, centrifuging was carried out at 8000 rpm for 1 min to separate plasma into a centrifuge tube, and the plasma was frozen in a −20° C. refrigerator.
as §1, §2

[4] = solvent 0.5% sodium methylcellulose aqueous solution
[5] = solvent 5% DMSO + 10% Solutol + 85% Saline
[6] = iv, i.v. 5.0 mg/kg, 5% DMSO+10% Solutol+85% Saline
[7] = po, p.o. 5.0 mg/kg, 0.5% sodium methylcellulose aqueous solution

SMILES	IC50 (Kasumi-1 cells) [nM]	TGI [1] [%]	AUC(0-t) [2, 4] [ng·h/mL]	Cmax [2, 4] [ng/mL]	Tmax [2, 4] [h]	half-life [2, 4] [h]	AUC(0-t) [2, 5] [ng·h/mL]	Cmax [2, 5] [ng/mL]	Tmax [2, 5] [h]	half-life [2, 5] [h]	AUC(0-t) [3, 6] [ng·h/mL]	Cmax [3, 6] [ng/mL]	Tmax [3, 6] [h]	half-life [3, 6] [h]	bioavailability [3] [%]	AUC(0-t) [3, 7] [ng·h/mL]	Cmax [3, 7] [ng/mL]	Tmax [3, 7] [h]	half-life [3, 7] [h]
CC(C)(O)Cn1ncc2cc(-c3c(C#N)cc(N4CCC(N)CC4)nc3-c3ccc(C#N)c(F)c3)c(F)cc21 [Compound 16, 6-(4-aminopiperid-1-yl)-2-(4-cyano-3-fluorophenyl)-3-(6-fluoro-1-(2-hydroxyl-2-methylpropyl)-1H-indazol-5-yl)isonicotinonitrile]	0.59	73.2	3220 ± 1510	895 ± 499	3.33 ± 1.15	3.99 ± 0.59	2420 ± 123	612 ± 111	2.67 ± 1.15	5.52 ± 0.67	1490 ± 157	765 ± 181	0.08	5.61 ± 1.29	46.2	693 ± 248	75.2 ± 20.3	4	4.73 ± 0.22
COc1ccc(-c2c(-c3ccc(C#N)c(F)c3)nc(N3CCC(N)CC3)n(C)c2=O)cc1F [CC-90011, reference compound]	3.18	35.3	965 ± 120		3.33 ± 1.15	5.01 ± 0.04	871 ± 270	173 ± 50.9	1	2.44 ± 0.34	906 ± 194	895 ± 90.4	0.08	3.32 ± 0.72	32.1	299 ± 178	49.2 ± 8.71	2.67 ± 1.15	4.15 ± 0.7
